Measurements taken from ChEMBL document CHEMBL3045681, “Synthesis and evaluation of new 1,2,3,4-tetrahydroisoquinoline analogs as antiglioma agents” (Med Chem Res, 2011).

Tests used:
[1] = Cytotoxicity against Rattus norvegicus Sprague-Dawley (rat) astrocytes after 4 days by cresylecth violet-staining method; format: cell-based, Astrocyte
C6 [2] = test: Cytotoxicity against Rattus norvegicus (rat) C6 cells after 4 days by cresylecth violet-staining method; format: functional, cell-based
C6 [3] = test: Ratio of EDL-155 EC50 to compound EC50 for Rattus norvegicus (rat) C6 cells; format: functional
[4] = Rattus norvegicus, Sprague-Dawley, Astrocyte, 96 h, read-out: EC50

Row | Compound | EC50 (C6 [2]; Rattus norvegicus, C6, 96 h) [µM] | EC50 [1, 4] [µM] | further results
1 | COc1cc2c(c(OC)c1)C(Cc1ccc(-c3ccccc3)cc1)N(C(=O)OC(C)(C)C)CC2 (stereo not drawn) | 7.54 |  | EC50 ([1]; astrocyte): Not Active
2 | COc1cc2c(c(OC)c1)C(Cc1ccc(-c3ccccc3)cc1)NCC2 (stereo not drawn) | 2.31 | 8.95 | 
3 | Oc1cc(O)c2c(c1)CCNC2Cc1ccc(-c2ccccc2)cc1 (stereo not drawn) | 2.09 | 11.9 | 
4 | CC(C)(C)OC(=O)N1CCc2cc(O)cc(O)c2C1Cc1ccc(-c2ccccc2)cc1 (stereo not drawn) | 4.97 | 8.58 | 
5 | COc1cc2c(c(OC)c1)C(Cc1ccc(Br)cc1)N(C(=O)OC(C)(C)C)CC2 (stereo not drawn) | 10.1 | 28.1 | 
6 | Oc1cc(O)c2c(c1)CCNC2Cc1ccc(Br)cc1 (stereo not drawn) | 12.6 | 23.9 | 
7 | CC(C)(C)OC(=O)N1CCc2cc(O)cc(O)c2C1Cc1ccc(Br)cc1 (stereo not drawn) | 7.04 | 9.97 | 
8 | COc1ccccc1-c1ccc(CC2c3c(O)cc(O)cc3CCN2C(=O)OC(C)(C)C)cc1 (stereo not drawn) | 7.34 | 67.5 | 
9 | COc1ccccc1-c1ccc(CC2NCCc3cc(O)cc(O)c32)cc1 (stereo not drawn) | 2.61 | 15.7 | 
10 | COc1cc2c(c(OC)c1)C(Cc1ccc(-c3ccccc3OC)cc1)N(C(=O)OC(C)(C)C)CC2 (stereo not drawn) | 59.7 |  | EC50 ([1]; astrocyte): Not Active
11 | Oc1cc2c(cc1O)C(Cc1ccc(-c3ccccc3)cc1)NCC2 (racemic) | 1.5 | 27.4 | 
12 | COc1cc2c(c(OC)c1)C(Cc1ccc(-c3ccccc3OC)cc1)NCC2 (single isomer, unassigned; (+)) |  |  | EC50 ([1]; astrocyte, read-out: EC50): 13.1 µM; EC50 (C6 [2]; c6): 0.26 µM
13 | COc1cc2c(c(OC)c1)C(Cc1ccc(-c3ccccc3OC)cc1)NCC2.Cl (stereo in doubt; 25) |  |  | Ratio EC50 (C6 [3]): 2.4; EC50 ([1]; astrocyte, read-out: EC50): 10.8 µM; EC50 (C6 [2]; c6): 0.63 µM
14 | COc1cc2c(c(OC)c1)C(Cc1ccc(-c3ccccc3OC)cc1)NCC2 (stereo in doubt; (-)25) |  | 15.7 | EC50 (C6 [2]; c6): 5.39 µM
15 | O=NN(CCCl)C(=O)NCCCl [CARMUSTINE] | 4.8 | 54.8 | 
16 | Cn1nnc2c(C(N)=O)ncn2c1=O [TEMOZOLOMIDE] | 16.5 | 51.8 | 
